Experimental data as given in patent US20120264928A1, “THERAPEUTIC PHARMACEUTICAL AGENT FOR DISEASES ASSOCIATED WITH DECREASE IN FUNCTION OF GNE PROTEIN, FOOD COMPOSITION, AND FOOD ADDITIVE” (JAPAN HEALTH SCIENCES FOUNDATION, priority 2009, published 2012).

Tests used:
DMRV model mice [1] = assay: Amount of NeuAc in muscle tissue of treated DMRV model mice; assay type: in vivo; settings: vs placebo group
Protocol: DMRV model mice were GNE^(−/−)hGNED176V-Tg described in Japanese Unexamined Patent Application Publication No. 2007-312641. Healthy litters having no GNE gene mutation were used as controls. The mice in the present example freely take water and feed and ingest 14 mg/kg body weight/day of N-acetylneuraminic acid compound on average.
In the case that the sample was cultured cells, the cells were washed with PBS three times, and 400 p. 1 of 50 mM sulfuric acid was added to the cells. The cells were incubated at 80° C. for 60 minutes and were hydrolyzed to release NeuAc and NeuGc. In the case that the sample was a piece of tissue, the tissue was frozen, was pulverized with an air hammer, and was homogenized in a KCl-tris solution. The precipitate was again washed with the KCl-tris solution and was hydrolyzed in 50 mM sulfuric acid at 80° C. for one hour to release NeuAc and NeuGc. 400 μl of 7 mmol 1,2-diamino-4,5-methylenedioxybenzene, dihydrochloride (MDB, Dojindo Laboratories) solution (15.8 mg MDB, 48.8 mg Na2S2O4, and 735 μl 2-mercaptoethanol were dissolved in distilled water so as to prepare a 10-ml solution) was added to the sample containing free NeuAc and NeuGc and was allowed to react at 60° C. for 2.5 hours. The fluorescent derivative thus prepared was analyzed with HPLC (JASCO Corp.) using 0.05 to 5 nmol/μl Neu5Ac and Neu5Gc standards. The amount of protein from the tissue was measured with a Bio-Rad Protein Assay kit (Bio-Rad Laboratories).
(§1) 20 mg/kg body weight/day of ManNAc (N=6), NeuAc (N=5), or sialyllactose (N=7) dissolved in drinking water was administered to the DMRV model mice between 11- to 15-week old and 56- to 58-week old for 43 to 45 weeks. 40 mg (N=5) or 400 mg/kg body weight/day (N=4) of Ac4ManNAc dissolved in drinking water was administered to the DMRV model mice of the same ages for 43 to 47 weeks. Drinking water free of the pharmaceutical agents was supplied to mice in a placebo group.
(§2) During the administration of the pharmaceutical agent, the measurement of the body weight, the determination of the survival rate, blood collection (0, 25, and 49 days after the start of administration, and thereafter at intervals of 28 days), and a hanging test (0 and 49 days after the start of administration, and thereafter at intervals of 56 days) were performed at regular intervals. Survivors after the administration (ManNAc-treated group: N=5, NeuAc-treated group: N=5, sialyllactose group: N=6) were subjected to a treadmill test. A muscle tissue was then excised and was subjected to a muscle contraction test, the measurement of the amount of NeuAc, and pathological observation.

[2] = tested on: primary cultured cells of myotubes; assay: Cytotoxicity of reagent in myotube culture; assay type: cell-based; settings: high concentration
DMRV model mice [3] = assay: Hanging test; assay type: in vivo; settings: 20 mg/kg body weight/day in drinking water; vs placebo group
Protocol: as §1, §2
A wire net having a 6-mm lattice pattern made of wires having a diameter of approximately 0.5 mm was placed on a tube having a height of 50 cm. A mouse was made to hang on the wire net, and the time elapsed before the mouse fell down was measured. The time was measured three times for each mouse.

[4] = tested on: primary cultured cells of myotubes derived from the DMRV model mice; assay: Amount of NeuAc by HPLC in myotubes from DMRV model mice; assay type: cell-based; settings: 10 mM ManNAc, three days; compared with control group (10 mM Glc)
Protocol: The skeletal muscle tissues collected from the DMRV human patients or the model mice were lightly washed with PBS or Hank's balanced saline and were treated with 0.25% trypsin for 5 minutes. The tissues were finely cut into several millimeters with ophthalmic scissors, were digested with 0.4% collagenase II/0.25% trypsin at 37° C. for 30 minutes, and were left still to collect supernatant. The precipitate was again treated with the enzyme liquid. After being left still, the precipitate was well suspended in a DMEM-Ham's F-12 culture medium. The tissue suspension was passed through a nylon mesh to remove the tissues. The washings and the supernatant were centrifuged to collect cells. […]
In the case that the sample was cultured cells, the cells were washed with PBS three times, and 400 p. […] The fluorescent derivative thus prepared was analyzed with HPLC (JASCO Corp.) using 0.05 to 5 nmol/μl Neu5Ac and Neu5Gc standards. The amount of protein from the tissue was measured with a Bio-Rad Protein Assay kit (Bio-Rad Laboratories).
ManNAc or Ac5GlcNAcol was added to the culture media of primary cultured cells of myotubes derived from the DMRV model mice such that the final concentration of ManNAc was 10 mM and the final concentration of Ac5GlcNAcol was […]. […] The amount of NeuAc in the cultured cells was measured by the HPLC method described above (N=3).

[5] = administration of free N-acetylneuraminic acid; cited from earlier work
[6] = in vivo; cited from earlier work
[7] = tested on: cells of animals having GNE gene mutation and normal animals; settings: cited from earlier work
[8] = 20 mg/kg body weight/day in drinking water

| Compound | amount of NeuAc in the muscle tissue (DMRV model mice [1]; 400 mg/kg) | cytotoxicity [2] | amount of NeuAc in the muscle tissue (DMRV model mice [1]; [8]) | hanging time (DMRV model mice [3]) | amount of NeuAc in the myotubes [4] | effect of increasing N-acetylneuraminic acid in ganglioside [5] | half-life in the blood of animals [6] | incorporation into cells [7] |
| --- | --- | --- | --- | --- | --- | --- | --- | --- |
| CC(=O)N[C@@H]1C(OC(C)=O)O[C@H](COC(C)=O)[C@@H](OC(C)=O)[C@@H]1OC(C)=O (stereo partly drawn) [Ac4ManNAc, Tetra-O-acetyl-N-acetylmannosamine] | significantly higher | has cytotoxicity when the Ac4ManNAc concentration is high | – | – | – | – | – | – |
| CC(=O)N[C@@H]1C(O)O[C@H](CO)[C@@H](O)[C@@H]1O (stereo partly drawn) [ManNAc, N-acetylmannosamine, reference compound] | – | – | significantly higher | longer | increased the amount of NeuAc | – | – | – |
| CC(=O)N[C@H]1[C@H]([C@H](O)[C@H](O)CO)OC(O)(C(=O)O)C[C@@H]1O (stereo partly drawn) [NeuAc, N-acetylneuraminic acid] | – | – | significantly higher | longer | – | no particular effect | very short | difficult to incorporate into cells |
| CC(=O)N[C@H]1[C@H]([C@H](O)[C@H](O)CO)O[C@@](O[C@H]2[C@@H](O)[C@@H](CO)O[C@@H](O[C@H]3[C@H](O)[C@@H](O)C(O)O[C@@H]3CO)[C@@H]2O)(C(=O)O)C[C@@H]1O (stereo partly drawn) [sialyllactose, NeuAcα2-3Galβ1-4Glc] | – | – | significantly higher | longer | – | – | – | – |
